The values below come from patent US20100223839A1, “SYSTEMS AND PROCESSES FOR PRODUCING BIO-FUELS FROM LIGNOCELLULOSIC MATERIALS” (WASHINGTON STATE UNIVERSITY, priority 2009, published 2010).

The test concerns Saccharomyces cerevisiae. Kind of test: Toxic effect of selected bio-oil model compounds on yeast growth (inhibition rate). Type of test: cell-based. The arrangement: inhibition rate: unit not given here. As to conditions: for inhibition of yeast growth, summary in words: summary of Table 4. From the text: The nature and the range of lethal concentrations of many of these toxic compounds was not well known. Thus, we carried out tests with model compounds to identify which of them were toxic to yeasts.
The toxic effects of selected bio-oil compounds (acetic acid, propanoic acid, cyclopentanone, 2-furaldehyde, furfuryl alcohol, phenol, eugenol, acetol, 2-(5H)-furanone, stilbene, vanillin, syringaldehyde, o-cresol) on Saccharomyces cerevisiae were studied.

Where [1] appears, read: compound at 25% of CFBO (concentration found in bio-oils; Mallee fast pyrolysis oil, 500° C.).
[2] abbreviates: compound at 50% of CFBO (concentration found in bio-oils; Mallee fast pyrolysis oil, 500° C.).
Where [3] appears, read: compound at 75% of CFBO (concentration found in bio-oils; Mallee fast pyrolysis oil, 500° C.).
Setting [4] is: compound at 100% of CFBO (concentration found in bio-oils; Mallee fast pyrolysis oil, 500° C.).

Take `CC(=O)O` [Acetic acid]: the “inhibition of yeast growth, summary in words” value (“inhibition of yeast growth” below) was “most lethal compounds inhibiting yeast growth”.
The same measure, in the same setting: for `O=Cc1ccco1` [2-furaldehyde] the value was “also inhibitors but their inhibition rate is much lower”; for `Oc1ccccc1O` [Pyrocatechol], “most lethal compounds inhibiting yeast growth”; for `C=CCc1ccc(O)c(OC)c1` [Eugenol], “most lethal compounds inhibiting yeast growth”.
The same measure, in the same setting: for `CCC(=O)O` [Propanoic acid] the value was “most lethal compounds inhibiting yeast growth”; for `COc1cc(C=O)cc(OC)c1O` [Syringaldehyde], “most lethal compounds inhibiting yeast growth”.
Same read-out and setting: the result for `CCCCCCCCCCCCCCC` [Petadecane] reads “also inhibitors but their inhibition rate is much lower”.
As to `Cc1ccccc1C` [O-xylol], the inhibition rate is, setting by setting: under setting [1], 5.01; under setting [2], 5.23; under setting [3], 5.33; under setting [4], 5.44.
On the same counts, the results for `Cc1ccccc1O` [O-cresol] are 2.61, 14.16, 23.38 and 31.22.
Consider `CCCCCCCCCCCCCC` [Tetradecane], for which the “inhibition of yeast growth” value is reported as “also inhibitors but their inhibition rate is much lower”.
Same read-out and setting: the result for `Oc1ccccc1` [Phenol] reads “most lethal compounds inhibiting yeast growth”.
Same read-out and setting: the result for `O=C1C=CCO1` [2-(5H)-Furanone] reads “also inhibitors but their inhibition rate is much lower”; that for `COc1cc(C=O)ccc1O` [Vanillin], “most lethal compounds inhibiting yeast growth”.
As for `CC(=O)CO` [Acetol], the inhibition rate is listed as 44.17 under setting [1], 77.80 under setting [2], 78.93 under setting [3] and 80.07 under setting [4].
For `OCc1ccco1` [Furfuryl alcohol], the “inhibition of yeast growth” value is given as “also inhibitors but their inhibition rate is much lower”.
